Results reported in the NIST ThermoML archive (doi:10.1016/j.jct.2009.06.008).
“And” between values parts separate entries of the source, which are not always exact repeats. Identical values can stand only once. Numbers after ± are expanded uncertainties.

Settings: Crystal, Calculated from knudsen effusion weight loss

O=[N+]([O-])c1ccccc1Br [1-bromo-2-nitrobenzene]
Settings	vapor or sublimation pressure
275.15 K	9.5e-05 ± 5e-06 kPa and 9.4e-05 ± 5e-06 kPa
277.15 K	0.000124 ± 6e-06 kPa and 0.000123 ± 6e-06 kPa
279.16 K	0.000164 ± 8e-06 kPa and 0.000165 ± 8e-06 kPa
281.17 K	0.00021 ± 1.1e-05 kPa and 0.000212 ± 1.1e-05 kPa and 0.000208 ± 1e-05 kPa
283.17 K	0.000279 ± 1.4e-05 kPa and 0.00028 ± 1.4e-05 kPa and 0.000277 ± 1.4e-05 kPa
285.17 K	0.000351 ± 1.8e-05 kPa and 0.000353 ± 1.8e-05 kPa and 0.00035 ± 1.8e-05 kPa
287.21 K	0.000451 ± 2.3e-05 kPa and 0.000459 ± 2.3e-05 kPa and 0.000448 ± 2.2e-05 kPa
289.17 K	0.000581 ± 2.9e-05 kPa and 0.000592 ± 3e-05 kPa and 0.000594 ± 3e-05 kPa
291.14 K	0.000733 ± 3.7e-05 kPa and 0.000729 ± 3.7e-05 kPa and 0.000735 ± 3.7e-05 kPa
293.14 K	0.000913 ± 4.6e-05 kPa and 0.000939 ± 4.7e-05 kPa and 0.000925 ± 4.6e-05 kPa
295.16 K	0.001204 ± 0.00013 kPa and 0.00121 ± 0.00013 kPa and 0.001218 ± 0.00013 kPa

O=[N+]([O-])c1cccc(Br)c1 [1-bromo-3-nitrobenzene]
Settings	vapor or sublimation pressure
279.57 K	0.000143 ± 7e-06 kPa and 0.000142 ± 7e-06 kPa and 0.000141 ± 7e-06 kPa
281.21 K	0.000184 ± 9e-06 kPa and 0.000183 ± 9e-06 kPa and 0.000181 ± 9e-06 kPa
283.14 K	0.000238 ± 1.2e-05 kPa and 0.000237 ± 1.2e-05 kPa and 0.000236 ± 1.2e-05 kPa
285.16 K	0.000299 ± 1.5e-05 kPa and 0.000294 ± 1.5e-05 kPa and 0.000301 ± 1.5e-05 kPa
287.19 K	0.000398 ± 2e-05 kPa and 0.000385 ± 1.9e-05 kPa and 0.000381 ± 1.9e-05 kPa
289.39 K	0.000507 ± 2.5e-05 kPa and 0.000506 ± 2.5e-05 kPa and 0.000496 ± 2.5e-05 kPa
291.16 K	0.000649 ± 3.3e-05 kPa and 0.00065 ± 3.3e-05 kPa and 0.000635 ± 3.2e-05 kPa
293.15 K	0.000817 ± 4.1e-05 kPa and 0.000815 ± 4.1e-05 kPa and 0.00079 ± 4e-05 kPa
295.17 K	0.001067 ± 0.00011 kPa and 0.001054 ± 0.00011 kPa and 0.001033 ± 0.0001 kPa

O=[N+]([O-])c1ccc(Br)cc1 [1-bromo-4-nitrobenzene]
Settings	vapor or sublimation pressure
289.15 K	0.000103 ± 5e-06 kPa and 0.000101 ± 5e-06 kPa and 9.9e-05 ± 5e-06 kPa
291.12 K	0.000122 ± 6e-06 kPa and 0.000119 ± 6e-06 kPa and 0.00012 ± 6e-06 kPa
293.14 K	0.00017 ± 9e-06 kPa and 0.000165 ± 8e-06 kPa and 0.000161 ± 8e-06 kPa
295.15 K	0.000209 ± 1e-05 kPa and 0.000202 ± 1e-05 kPa
297.14 K	0.000255 ± 1.3e-05 kPa and 0.000248 ± 1.2e-05 kPa
299.15 K	0.000332 ± 1.7e-05 kPa and 0.000337 ± 1.7e-05 kPa and 0.000333 ± 1.7e-05 kPa
301.13 K	0.000427 ± 2.1e-05 kPa and 0.00041 ± 2.1e-05 kPa and 0.000409 ± 2e-05 kPa
303.14 K	0.000526 ± 2.6e-05 kPa and 0.000537 ± 2.7e-05 kPa and 0.00052 ± 2.6e-05 kPa
305.14 K	0.000644 ± 3.2e-05 kPa and 0.000653 ± 3.3e-05 kPa and 0.000624 ± 3.1e-05 kPa
307.14 K	0.0008 ± 4e-05 kPa and 0.000809 ± 4.1e-05 kPa and 0.000788 ± 3.9e-05 kPa
309.15 K	0.00105 ± 0.00011 kPa and 0.001036 ± 0.0001 kPa and 0.00101 ± 0.0001 kPa
